Experimental findings from patent US20060160095A1, “Survivin” (EiRx Therapeutics Limited, priority 2002, published 2006) are described below.

The test system of test [1] is Primary human neutrophils. In words: MTT survival assay of neutrophils cultured with GM-CSF, with or without gliotoxin. To be noted: various amounts of GM-CSF, 18 h culture. It is filed as cell-based. The procedure:
Primary human neutrophils are isolated and purified from peripheral blood of normal healthy individuals. Neutrophils are resuspended in serum containing culture medium together with various amounts of GM-CSF at a density of 2×10^6/ml, with 100 μl plated into a 96 well plate and cultured for 18 h at 37° C. After this time 10 μl of MTT (5 mg/ml) is added to the cultures and incubated for a further 4 h at 37° C. before solubilisation of the purple coloured formazan with acidic isopropanol. Optical densities are read at 570 nm using a plate reader.
Primary human neutrophils are isolated and purified from peripheral blood of normal healthy individuals. Neutrophils are resuspended in serum containing culture medium containing 5 U/ml of GM-CSF at a concentration of 2×10^6/ml. […] After the indicated time, 10 μl of MTT (5 mg/ml) are added to the cultures and incubated for a further 4 h at 37° C. before solubilisation of the purple coloured formazan with acidic isopropanol. Optical densities are read at 570 nm using a plate reader.

The subject of test [2] is Neutrophils. In words: Measurement of apoptosis by DNA fragmentation (propidium iodide flow cytometry). It is filed as cell-based, human. As to conditions: neutrophils cultured overnight in the presence of GM-CSF. The procedure:
Neutrophils are isolated from the blood as described in Example 1 and resuspended at a concentration of 2×10^6/ml. Five hundred microlitres are pipetted into wells of a 24 well plate and incubated in the presence or absence of survival factors.
After this incubation, the neutrophils are carefully resuspended by gentle agitation and the total contents of the well are placed into an eppendorf and centrifuged @2800 rpm for 2 min @ RT in a minifuge. The cell pellet is carefully resuspended in 300 μl of ice cold hypotonic fluorochrome solution (50 μg/ml Propidium Iodide, 0.1% Sodium Citrate and 0.1% Triton X-100) and placed in a fridge for 24 h @ 4° C.
Prepared samples are analysed with a FacsCalibre flow cytometer (Becton Dickinson) using double discrimination to ensure single cell suspension with Log Forward and Side Scatter Parameter acquisition.

In test [3] the test system is Survivin mRNA. In words: LifeGrid microarray of Survivin transcripts in neutrophils. In kind it is cell-based, human. To be noted: between 2 and 6 h following addition of GM-CSF. The protocol: Primary human neutrophils are isolated and purified from peripheral blood of normal healthy individuals using standard techniques. Neutrophils are resuspended in serum containing culture medium together with GM-CSF (50 U) at a concentration of 2×10^6/ml, and cultured for 0 h (control), 2 h, 4 h and 6 h at 37° C. Total RNA is then prepared from both groups using acid phenol/guanidine isothiocyanate extraction (RNAzol B; Biogenesis), or RNeasy RNA preparation kits (Qiagen). Any contaminating genomic DNA is removed by DNase treatment (DNase I, Gibco-BRL). […]
This example describes the use of a STORM Phosphoimager to quantitatively image positive signals across the filter arrays. […]
The captured image file is then analysed using software such as Array Vision (Imaging Research Inc.; See FIG. 5). […] This program contains facilities for spot detection and quantification, and background detection and quantification. […] As the data is imported to the database, a Normalisation factor is calculated and the sDENs values modified accordingly. […] A normalization factor may be derived from Linear Regression calculated by reference to housekeeping genes. Alternatively, the Global Mean is calculated as the average of the sDens values across all of the arrays to be compared and a normalisation factor is then derived by division of the overall spot density with the Global Mean value. […]

In test [4] the test system is caspase-3. In words: Caspase-3 immunoblotting in neutrophils. In kind it is cell-based, human. As to conditions: neutrophils cultured with GM-CSF or G-CSF for 10 h. The procedure: Immunoblotting is carried out as described above using supernatants of cell lysates. Caspase-3 is detected using a polyclonal anti-caspase-3 antibody (1/1000; Becton Dickinson Pharmingen, Heidelberg, Germany))
Neutrophils (2.5×10^6) are cultured in the presence or absence of GM-CSF (50 ng/ml), G-CSF (25 ng/ml), 2-MOE modified antisense or mismatch survivin oligonucleotides at the indicated concentrations for 10 h, washed with cold PBS and subsequently lysed in 50 μl cell lysis buffer (50 mM HEPES, pH 7.4/0.1% Chaps/5 mM DTT/0.1 mM EDTA) using a Teflon glass homogenizer (VWR International, Ismaning, Germany) on ice for 10 min. After a 10-min centrifugation step at 10,000×g at 4° C., an aliquot of the supernatant is saved for caspase-3 immunoblotting and caspase 3-like activity is measured in 10 μl supernatants as enzymatic-conversion of the colorimetric substrate Ac-DEVD-pNA at 405 nm according to the manufacturer's instructions (QuantiZyme caspase 3 cellular activity assay kit, Biomol, Plymouth Meeting, Pa., USA).

Consider “Granulocyte macrophage colony-stimulating factor [GM-CSF]”, for which the “neutrophil survival (MTT, optical density at 570 nm)” value in test [1] was “direct correlation between survival and concentrations of GM-CSF”. For the same substance, in test [2], the “apoptosis by DNA fragmentation (G0/G1 and sub-G1 peaks)” value was “few cells in the sub-G1 peak”. Also, in test [3], the “Expression of Survivin (microarray fold change)” value is “up-regulated”. Besides, in test [4], the “caspase-3 proform and 17-kDa fragment levels with cytokine” value is “maintain greater amounts of the caspase-3 proform”.
